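Where inhibition never reached the appropriate level, the endpoint shown equals the highest concentration tested. Otherwise, values were interpolated linearly from a five-concentration, 48-hour dose response in 96-well plates. GI50 is the concentration that inhibits growth by half. TGI marks complete inhibition of growth.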
Tests used:
Assay in all cases: NCI-60 cell line screen, 48 h
CAKI-1 renal = tested on: CAKI-1 renal
ACHN renal = tested on: ACHN renal
EKVX NSCLC = tested on: EKVX NSCLC
TK-10 renal = tested on: TK-10 renal
MCF7 breast = tested on: MCF7 breast
UO-31 renal = tested on: UO-31 renal
786-0 renal = tested on: 786-0 renal
NCI/ADR-RES ovarian = tested on: NCI/ADR-RES ovarian
HOP-62 NSCLC = tested on: HOP-62 NSCLC
HL-60(TB) leukemia = tested on: HL-60(TB) leukemia

| SMILES | GI50 (CAKI-1 renal) | TGI (CAKI-1 renal) | GI50 (ACHN renal) | TGI (ACHN renal) | GI50 (EKVX NSCLC) | TGI (EKVX NSCLC) | GI50 (TK-10 renal) | TGI (TK-10 renal) | GI50 (MCF7 breast) | TGI (MCF7 breast) | GI50 (UO-31 renal) | TGI (UO-31 renal) | GI50 (786-0 renal) | TGI (786-0 renal) | GI50 (NCI/ADR-RES ovarian) | TGI (NCI/ADR-RES ovarian) | GI50 (HOP-62 NSCLC) | TGI (HOP-62 NSCLC) | GI50 (HL-60(TB) leukemia) | TGI (HL-60(TB) leukemia) |
| --- | --- | --- | --- | --- | --- | --- | --- | --- | --- | --- | --- | --- | --- | --- | --- | --- | --- | --- | --- | --- |
| CCCCOc1ccc(NC(=O)n2nc(N)c3ccccc32)cc1 | 29.1 µM | 71.9 µM | 22.7 µM | > 89.4 µM | 17.4 µM | 85.1 µM | 26.9 µM | > 73.5 µM | 5.62 µM | 32.3 µM | 13.4 µM | > 100 µM | 19.7 µM | 48.4 µM | 23.9 µM | 71.1 µM | 24.4 µM | 60.6 µM | 0.813 µM | 21 µM |
| COc1ccc2c(c1)=C(C=C1C=CN(O)C=C1)C(=O)N=2 | 28.2 µM | > 89.6 µM | 23.5 µM | > 100 µM | 43.9 µM | > 100 µM | 36.3 µM | > 90.5 µM | 20.9 µM | > 100 µM | 19.8 µM | > 92.6 µM | 31 µM | > 92.3 µM | 30.3 µM | > 86.9 µM | 40.2 µM | > 100 µM | 22.4 µM | 49.9 µM |
| O=C(Nc1ccccc1)c1nn(-c2cc(S(=O)(=O)O)c([N+](=O)[O-])cc2Cl)[n+](-c2cc(S(=O)(=O)[O-])c([N+](=O)[O-])cc2Cl)n1 |  | > 100 µM |  | > 100 µM |  | > 100 µM |  | > 100 µM |  | > 100 µM |  | > 100 µM |  | > 100 µM |  | > 100 µM |  | > 100 µM |  | > 100 µM |
| Fc1ccc(-c2nn3c(-c4ccc(F)c(Cl)c4)nnc3s2)cc1 | 26 µM | > 50 µM | 29.1 µM | > 50 µM | > 50 µM | > 50 µM | 14.2 µM | > 50 µM | 30.3 µM | > 50 µM | 28.6 µM | > 50 µM | 35.3 µM | > 50 µM | 23.8 µM | > 50 µM | 27.5 µM | > 50 µM | 27.4 µM | > 50 µM |
| O=C1C2C(C(=O)[N]1[Hg][c]1cccs1)C1(Cl)C(Cl)=C(Cl)C2(Cl)C1(Cl)Cl (stereo not given) | 1.29 µM | 2.64 µM | 1.61 µM | 3.04 µM | 1.83 µM | 4.2 µM | 1.65 µM | 3.04 µM | 0.386 µM | 1.94 µM | 1.74 µM | 3.21 µM | 0.67 µM | 1.81 µM | 2.07 µM | 4.8 µM | 2.52 µM | 6.84 µM | 1.29 µM | 4.63 µM |
| CCCc1cc(O)c2c3c(c(=O)oc2c1)CN(C)CC3 | > 100 µM | > 100 µM | > 100 µM | > 100 µM | > 100 µM | > 100 µM | > 100 µM | > 100 µM | 44.8 µM | > 100 µM | 35.8 µM | > 100 µM | 61.7 µM | > 100 µM | > 100 µM | > 100 µM | 67.1 µM | > 100 µM | 50.2 µM | > 100 µM |
| CCC[CH2][Sn]([CH2]CCC)([O]C(=O)c1cc(F)ccc1F)[O][Sn]([CH2]CCC)([CH2]CCC)[O]C(=O)c1cc(F)ccc1F | 0.129 µM | 0.621 µM | 0.251 µM | 0.738 µM | 0.69 µM | 2.11 µM | 0.226 µM | 0.616 µM | 0.0822 µM | 0.776 µM | 0.54 µM | 1.78 µM | 0.158 µM | 0.405 µM | 0.522 µM | 1.88 µM | 1.84 µM | 3.27 µM | 0.139 µM | 2.6 µM |
